{"source": "paper PMC3164379", "about": "“Three New Compounds from Aspergillus terreus PT06-2 Grown in a High Salt Medium” (Marine Drugs, 2011)", "key": {"Pseudomonas aeruginosa": {"tested_on": "Pseudomonas aeruginosa", "assay": "Antimicrobial activity, agar dilution method", "conditions": "for MIC Pseudomonas aeruginosa: agar dilution, paper disks, 24 h incubation, 37 °C; for MIC: Pseudomonas aeruginosa, 24 h", "protocol": "(§1) Antimicrobial activity against E. aerogenes, P. aeruginosa, S. aureus and C. albicans was evaluated using an agar dilution method [29]. The tested strains were cultivated in LB agar plates for bacteria and in YPD agar plates for C. albicans, at 37 °C. Compounds and positive controls were dissolved in 5% DMSO-H2O at different concentrations from 1000 to 62.5 μg/mL and then from 50 to 0.78 μg/mL, using continuous 2-fold dilution. The test solutions (5 μL) were absorbed onto paper disks (5 mm diameter) and placed on the assay plates. After 24 h incubation, zones of inhibition (mm in diameter) were recorded. The minimum inhibitory concentrations were defined as the lowest concentration at which an inhibition zone could be observed."}, "Candida albicans": {"tested_on": "Candida albicans", "assay": "Antimicrobial activity, agar dilution method", "conditions": "for MIC: Candida albicans, 24 h, read-out: MIC Candida albicans", "protocol": "as §1"}, "Staphylococcus aureus": {"tested_on": "Staphylococcus aureus", "assay": "Antimicrobial activity, agar dilution method", "conditions": "for MIC Staphylococcus aureus: agar dilution, paper disks, 24 h incubation, 37 °C; for MIC: Staphylococcus aureus, 24 h, read-out: MIC Staphylococcus aureus", "protocol": "as §1"}, "Enterobacter aerogenes": {"tested_on": "Enterobacter aerogenes", "assay": "Antimicrobial activity, agar dilution method", "conditions": "for MIC Enterobacter aerogenes: agar dilution, paper disks, 24 h incubation, 37 °C; for MIC: Klebsiella aerogenes, 24 h, read-out: MIC Enterobacter aerogenes", "protocol": "as §1"}, "[1]": {"tested_on": "influenza virus (A/Puerto Rico/8/34 (H1N1), PR/8)", "assay": "Antiviral activity against H1N1, CPE inhibition assay", "type": "cell-based", "conditions": "read-out: IC50 anti-H1N1 activity"}, "BEL-7402 cell line": {"tested_on": "BEL-7402 cell line", "assay": "in vitro", "conditions": "human", "protocol": "(§2) Cytotoxicity against HL-60 and BEL-7402 cancer cell lines and confluent MDCK cells was assayed by the MTT method [28]. Cell lines were grown in RPMI-1640 supplemented with 10% FBS under a humidified atmosphere of 5% CO2 and 95% air at 37 °C. […] Then, 2 μL of the test solutions (in MeOH) were added to each well and further incubated for 72 h. The MTT solution (20 μL, 5 mg/mL in IPMI-1640 medium) was then added to each well and incubated for 4 h. Old medium containing MTT (150 μL) was then gently replaced by DMSO and pipetted to dissolve any formazan crystals formed. Absorbance was then determined on a SPECTRA MAX PLUS plate reader at 540 nm. The CC50 was calculated as the compound concentration necessary to reduce cell viability by 50%."}, "HL-60 cell line": {"tested_on": "HL-60 cell line", "assay": "in vitro", "conditions": "human", "protocol": "as §2"}, "[2]": {"assay": "Cytotoxicity against confluent MDCK cells by MTT method", "type": "cell-based", "conditions": "dog, read-out: CC50 (50% cytotoxicity concentration)", "protocol": "as §2"}, "[3]": {"conditions": "read-out: MIC Pseudomonas aeruginosa, agar dilution, paper disks, 24 h incubation, 37 °C"}}, "note": "Where two headings read alike, the source gives them in different places.", "data": [{"smiles": "C/C=C/C1=CC(=O)[C@@H](O)[C@@H]1O", "note": "[Compound 15, (+)-terrein]", "values": [{"measurement": "MIC Pseudomonas aeruginosa", "setting": "Pseudomonas aeruginosa", "value": ">100", "unit": "µM"}, {"measurement": "MIC Candida albicans", "setting": "Candida albicans; agar dilution, YPD agar, paper disks, 24 h incubation, 37 °C", "value": ">100", "unit": "µM"}, {"measurement": "MIC Staphylococcus aureus", "setting": "Staphylococcus aureus", "value": ">100", "unit": "µM"}, {"measurement": "MIC Enterobacter aerogenes", "setting": "Enterobacter aerogenes", "value": ">100", "unit": "µM"}]}, {"smiles": "CC(O)C(=O)O.O=C(O)c1cn(C2CC2)c2cc(N3CCNCC3)c(F)cc2c1=O", "note": "[Ciprofloxacinlactate, reference compound]", "values": [{"measurement": "MIC Pseudomonas aeruginosa", "setting": "Pseudomonas aeruginosa", "value": 30, "unit": "µM"}, {"measurement": "MIC Staphylococcus aureus", "setting": "Staphylococcus aureus", "value": 1, "unit": "µM"}, {"measurement": "MIC Enterobacter aerogenes", "setting": "Enterobacter aerogenes", "value": 1, "unit": "µM"}]}, {"smiles": "COC(=O)[C@]1(Cc2ccc(O)c(CCC(C)(C)O)c2)OC(=O)C(O)=C1c1ccc(O)cc1", "note": "[Compound 3, (R)-methyl 4-hydroxy-2-(4-hydroxy-3-(3-hydroxy-3-methylbutyl)benzyl)-3-(4-hydroxyphenyl)-5-oxo-2,5-dihydrofuran-2-carboxylate]", "values": [{"measurement": "MIC", "setting": "Pseudomonas aeruginosa; read-out: MIC Pseudomonas aeruginosa", "value": "> 100", "unit": "µM"}, {"measurement": "MIC", "setting": "Candida albicans", "value": "> 100", "unit": "µM"}, {"measurement": "MIC", "setting": "Staphylococcus aureus", "value": "> 100", "unit": "µM"}, {"measurement": "MIC", "setting": "Enterobacter aerogenes", "value": "> 100", "unit": "µM"}]}, {"smiles": "NC(=O)c1ncn([C@@H]2O[C@H](CO)[C@@H](O)[C@H]2O)n1", "note": "[Ribavirin, reference compound]", "values": [{"measurement": "IC50", "setting": "[1]; CPE inhibition in MDCK cells, 48 h post-infection", "value": 101, "unit": "µM"}]}, {"smiles": "CC(=O)N1CCN(c2ccc(OCC3COC(Cn4ccnc4)(c4ccc(Cl)cc4Cl)O3)cc2)CC1", "note": "(stereo not shown) [Ketoconazole, reference compound]", "values": [{"measurement": "MIC", "setting": "Candida albicans", "value": 5, "unit": "µM"}]}, {"smiles": "COC(=O)c1cccc(O)c1NC(=O)c1ccccc1NC(=O)c1cccnc1", "note": "[Compound 1, methyl 3-hydroxy-2-(2-(nicotinamido)benzamido)benzoate]", "values": [{"measurement": "MIC", "setting": "Pseudomonas aeruginosa; [3]", "value": 63.9, "unit": "µM"}, {"measurement": "MIC Pseudomonas aeruginosa", "setting": "Pseudomonas aeruginosa", "value": ">100", "unit": "µM"}, {"measurement": "MIC", "setting": "Candida albicans", "value": "> 100", "unit": "µM"}, {"measurement": "MIC", "setting": "Staphylococcus aureus", "value": 63.9, "unit": "µM"}, {"measurement": "MIC", "setting": "Enterobacter aerogenes", "value": "> 100", "unit": "µM"}]}, {"smiles": "COC(=O)c1cccc(O)c1-n1c(-c2cccnc2)nc2ccccc2c1=O", "note": "[Compound 2, methyl 3-hydroxy-2-(4-oxo-2-(pyridin-3-yl)quinazolin-3(4H)-yl)benzoate]", "values": [{"measurement": "MIC", "setting": "Pseudomonas aeruginosa; [3]", "value": "> 100", "unit": "µM"}, {"measurement": "MIC", "setting": "Candida albicans", "value": "> 100", "unit": "µM"}, {"measurement": "MIC", "setting": "Staphylococcus aureus", "value": "> 100", "unit": "µM"}, {"measurement": "MIC", "setting": "Enterobacter aerogenes", "value": 33.5, "unit": "µM"}]}, {"smiles": "COC(=O)c1cc(OC)c(OC)c(OC)c1NC(=O)c1ccccc1NC(=O)c1cccnc1", "note": "[Compound 4, methyl 3,4,5-trimethoxy-2-(2-(nicotinamido)benzamido)benzoate]", "values": [{"measurement": "MIC", "setting": "Pseudomonas aeruginosa; [3]", "value": "> 100", "unit": "µM"}, {"measurement": "MIC", "setting": "Candida albicans", "value": "> 100", "unit": "µM"}, {"measurement": "MIC", "setting": "Staphylococcus aureus", "value": 52.4, "unit": "µM"}, {"measurement": "MIC", "setting": "Enterobacter aerogenes", "value": "> 100", "unit": "µM"}]}, {"smiles": "COc1cc([C@@H]2c3cc4c(cc3[C@@H](O[C@@H]3O[C@@H]5CO[C@@H](C)O[C@H]5[C@H](O)[C@H]3O)[C@H]3COC(=O)[C@H]23)OCO4)cc(OC)c1O", "note": "[Vp-16, Etoposide, reference compound]", "values": [{"measurement": "IC50 at 72 h", "setting": "BEL-7402 cell line", "value": 0.83, "unit": "µM"}, {"measurement": "IC50 at 72 h", "setting": "HL-60 cell line", "value": 0.042, "unit": "µM"}]}, {"smiles": "COC(=O)[C@]1(Cc2ccc(O)c(CC=C(C)C)c2)OC(=O)C(O)=C1c1ccc(O)cc1", "note": "[Compound 5, butyrolactone I]", "values": [{"measurement": "IC50", "setting": "[1]; MDCK, 48 h", "value": 143, "unit": "µM"}, {"measurement": "IC50 at 72 h", "setting": "HL-60 cell line", "value": 57.5, "unit": "µM"}, {"measurement": "CC50 at 72 h", "setting": "[2]", "value": 976, "unit": "µM"}]}]}
